Assay results from patent US11498903B2 (BRISTOL-MYERS SQUIBB COMPANY, priority 2017, dated 2022).
Where two headings read alike, the source gives them in different places.

Target: T1, human APJ receptor (Homo sapiens, UniProt P35414)
T1 construct: expressed in transfected cells
T1 sequence (P35414 1-380): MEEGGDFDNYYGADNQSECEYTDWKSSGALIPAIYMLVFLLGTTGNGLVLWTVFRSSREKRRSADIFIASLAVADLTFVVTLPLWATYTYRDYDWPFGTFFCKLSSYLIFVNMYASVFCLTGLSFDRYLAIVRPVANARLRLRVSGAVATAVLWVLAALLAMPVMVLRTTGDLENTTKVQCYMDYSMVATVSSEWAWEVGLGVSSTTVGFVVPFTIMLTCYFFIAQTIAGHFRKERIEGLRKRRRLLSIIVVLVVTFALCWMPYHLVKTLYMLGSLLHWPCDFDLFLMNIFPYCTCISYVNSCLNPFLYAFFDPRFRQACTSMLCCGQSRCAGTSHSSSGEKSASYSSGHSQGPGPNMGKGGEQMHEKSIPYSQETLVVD
Test: Intracellular cAMP accumulation assay (APJ hcAMP, HTRF)
Type: cell-based
Settings: HEK293 cells stably expressing human APJ receptor
Experimental: Intracellular cAMP Accumulation Assay
HEK293 cells stably expressing human APJ receptor were used to assess the activity of compounds. Cultured cells were detached and resuspended in the cAMP Homogeneous Time-Resolved Fluorescence (HTRF) assay buffer (Cisbio cat; #62AM4PEJ). The assay was performed in 384-well assay plates (Perkin-Elmer; cat #6008289) according to assay protocol provided by the manufacturer. Serial dilutions of a compound together with assay buffer containing […] IBMX and 2 μM forskolin were added to each well containing 5,000 cells and incubated for 30 minutes at room temperature. Subsequently, cAMP D2 reagent was added in the lysis buffer followed by the EuK antibody (Cisbio; cat #62AM4PEJ) and incubated for 60 min. The fluorescence emission ratio was measured using fluorometer. The intracellular cAMP concentrations (compound-stimulated inhibition of forskolin-mediated cAMP production) were calculated by extrapolation from a standard curve using known cAMP concentrations. The EC50 values were obtained by fitting the data to a sigmoidal concentration-response curve with variable slope. The maximal achievable inhibition of forskolin-induced cAMP levels (Ymax) for each compound was expressed as relative percentage of inhibition attained using pyroglutamated apelin-13 ((Pyrl)apelin-13) peptide, which was set to 100%.
The exemplified Examples disclosed below were tested in the APJ in vitro assays described above and were found having human APJ cyclic AMP (hcAMP) activity. Table 1 lists hcAMP EC50 values measured for the following examples. Ranges are as followε: A=0.0-10 nM; B=10.01-100 nM; C=101-500 nM.

[1] = Table 1, inhibition of forskolin-mediated cAMP production, read-out: APJ hcAMP EC50
[2] = Table 3, read-out: APJ cAMP Human EC50

| Compound | EC50 [1] | EC50 [2] |
| --- | --- | --- |
| COC[C@@H](NC(=O)c1ccc(-c2c(Cl)cccc2-c2nc3ccccc3[nH]2)c(C(=O)O)c1)c1ccccc1 (atropisomer, axis not shown) [Example 82, (S)-2′-(1H-benzo[d]imidazol-2-yl)-6′-chloro-4-(((S)-2-methoxy-1-phenylethyl)carbamoyl)-[1,1′-biphenyl]-2-carboxylic acid] |  | 10 to 100 nM |
| CCC[C@@H](NC(=O)c1ccc(-c2c(Cl)cccc2-c2nc3cc(OC)c(F)cc3[nH]2)c(C(=O)OC)c1)c1ccccc1 (atropisomer, axis not shown) [Example 83, methyl (S)-2′-chloro-6′-(6-fluoro-5-methoxy-1H-benzo[d]imidazol-2-yl)-4-(((R)-1-phenylbutyl)carbamoyl)-[1,1′-biphenyl]-2-carboxylate] |  | 10 to 100 nM |
| CCC[C@@H](NC(=O)c1ccc(-c2c(Cl)cccc2-c2nc3cc(Cl)c(F)cc3[nH]2)c(C(=O)OC)c1)c1ccccc1 (atropisomer, axis not shown) [Example 86, (S)-methyl 2′-chloro-6′-(5-chloro-6-fluoro-1H-1,3-benzodiazol-2-yl)-4-{[(1R)-1-phenylbutyl]carbamoyl}-[1,1′-biphenyl]-2-carboxylate] |  | 101 to 500 nM |
| CCC[C@@H](NC(=O)c1ccc(-c2c(Cl)cccc2-c2nc3cc(F)cc(F)c3[nH]2)c(C(=O)O)c1)c1ccccc1 (atropisomer, axis not shown) [Example 96, (S)-2′-chloro-6′-(5,7-difluoro-1H-1,3-benzodiazol-2-yl)-4-{[(1R)-1-phenylbutyl]carbamoyl}-[1,1′-biphenyl]-2-carboxylic acid] | < 10 nM |  |
| CCC[C@@H](NC(=O)c1ccc(-c2c(Cl)cccc2-c2nc3cc(Cl)c(C)cc3[nH]2)c(C(=O)O)c1)c1ccccc1 (atropisomer, axis not shown) [Example 97, (S)-2′-chloro-6′-(5-chloro-6-methyl-1H-1,3-benzodiazol-2-yl)-4-{[(1R)-1-phenylbutyl]carbamoyl}-[1,1′-biphenyl]-2-carboxylic acid] |  | 10 to 100 nM |
| CCC[C@@H](NC(=O)c1ccc(-c2c(Cl)cccc2-c2nc3c(OC)ccc(OC)c3[nH]2)c(C(=O)O)c1)c1ccccc1 (atropisomer, axis not shown) [Example 98, (S)-2′-chloro-6′-(4,7-dimethoxy-1H-1,3-benzodiazol-2-yl)-4-{[(1R)-1-phenylbutyl]carbamoyl}-[1,1′-biphenyl]-2-carboxylic acid] |  | 10 to 100 nM |
| CCC[C@@H](NC(=O)c1ccc(-c2c(Cl)cccc2-c2nc3cccc(O)c3[nH]2)c(C(=O)O)c1)c1ccccc1 (atropisomer, axis not shown) [Example 99, (S)-2′-chloro-6′-(7-hydroxy-1H-1,3-benzodiazol-2-yl)-4-{[(1R)-1-phenylbutyl]carbamoyl}-[1,1′-biphenyl]-2-carboxylic acid] | 10 to 100 nM | 10 to 100 nM |
| CCC[C@@H](NC(=O)c1ccc(-c2c(Cl)cccc2-c2ncc(-c3ccc(C)c(F)c3)[nH]2)c(C(=O)O)c1)c1ccccc1 (atropisomer, axis not shown) [Example 104, (S)-2′-chloro-6′-[5-(3-fluoro-4-methylphenyl)-1H-imidazol-2-yl]-4-{[(1R)-1-phenylbutyl]carbamoyl}-[1,1′-biphenyl]-2-carboxylic acid] | < 10 nM | < 10 nM |
| CCC[C@@H](NC(=O)c1ccc(-c2c(Cl)cccc2-c2ncc(-c3ccc(OC)cc3)[nH]2)c(C(=O)O)c1)c1ccccc1 (atropisomer, axis not shown) [Example 105, (S)-2′-chloro-6′-[5-(4-methoxyphenyl)-1H-imidazol-2-yl]-4-{[(1R)-1-phenylbutyl]carbamoyl}-[1,1′-biphenyl]-2-carboxylic acid] | < 10 nM | < 10 nM |

Next, values leading:

| EC50 [1] | EC50 [2] | Compound |
| --- | --- | --- |
| < 10 nM | < 10 nM | CCC[C@@H](NC(=O)c1ccc(-c2c(Cl)cccc2-c2nc3ccccc3[nH]2)c(C(=O)O)c1)c1ccccc1 (atropisomer, axis not shown) [Example 81, (S)-2′-(1H-benzo[d]imidazol-2-yl)-6′-chloro-4-(((R)-1-phenylbutyl)carbamoyl)-[1,1′-biphenyl]-2-carboxylic acid] |
|  | < 10 nM | CCC[C@@H](NC(=O)c1ccc(-c2c(Cl)cccc2-c2nc3cc(Cl)c(F)cc3[nH]2)c(C(=O)O)c1)c1ccccc1 (atropisomer, axis not shown) [Example 85, (S)-2′-chloro-6′-(5-chloro-6-fluoro-1H-1,3-benzodiazol-2-yl)-4-{[(1R)-1-phenylbutyl]carbamoyl}-[1,1′-biphenyl]-2-carboxylic acid] |
| < 10 nM | < 10 nM | CCC[C@@H](NC(=O)c1ccc(-c2c(Cl)cccc2-c2nc3cc(O)c(F)cc3[nH]2)c(C(=O)O)c1)c1ccccc1 (atropisomer, axis not shown) [Example 87, (S)-2′-chloro-6′-(6-fluoro-5-hydroxy-1H-1,3-benzodiazol-2-yl)-4-{[(1R)-1-phenylbutyl]carbamoyl}-[1,1′-biphenyl]-2-carboxylic acid] |
|  | < 10 nM | CCC[C@@H](NC(=O)c1ccc(-c2c(Cl)cccc2-c2nc3ccc(F)c(F)c3[nH]2)c(C(=O)O)c1)c1ccccc1 (atropisomer, axis not shown) [Example 88, (S)-2′-chloro-6′-(6,7-difluoro-1H-1,3-benzodiazol-2-yl)-4-{[(1R)-1-phenylbutyl]carbamoyl}-[1,1′-biphenyl]-2-carboxylic acid] |
| < 10 nM | < 10 nM | CCC[C@@H](NC(=O)c1ccc(-c2c(Cl)cccc2-c2nc3cc(F)c(F)cc3[nH]2)c(C(=O)O)c1)c1ccccc1 (atropisomer, axis not shown) [Example 89, (S)-2′-chloro-6′-(5,6-difluoro-1H-1,3-benzodiazol-2-yl)-4-{[(1R)-1-phenylbutyl]carbamoyl}-[1,1′-biphenyl]-2-carboxylic acid] |
| < 10 nM | < 10 nM | CCC[C@@H](NC(=O)c1ccc(-c2c(Cl)cccc2-c2nc3cc(F)cc(F)c3[nH]2)c(C(=O)O)c1)c1ccccc1 (atropisomer, axis not shown) [Example 90, (S)-2′-chloro-6′-(5,7-difluoro-1H-1,3-benzodiazol-2-yl)-4-{[(1R)-1-phenylbutyl]carbamoyl}-[1,1′-biphenyl]-2-carboxylic acid] |
| < 10 nM | < 10 nM | CCC[C@@H](NC(=O)c1ccc(-c2c(Cl)cccc2-c2nc3cccc(O)c3[nH]2)c(C(=O)O)c1)c1ccccc1 (atropisomer, axis not shown) [Example 92, (S)-2′-chloro-6′-(7-hydroxy-1H-1,3-benzodiazol-2-yl)-4-{[(1R)-1-phenlylbutyl]carbamoyl}-[1,1′-biphenyl]-2-carboxylic acid] |
| < 10 nM | < 10 nM | CCC[C@@H](NC(=O)c1ccc(-c2c(Cl)cccc2-c2nc3cc(Cl)cc(Cl)c3[nH]2)c(C(=O)O)c1)c1ccccc1 (atropisomer, axis not shown) [Example 94, (S)-2′-chloro-6′-(5,7-dichloro-1H-1,3-benzodiazol-2-yl)-4-{[(1R)-1-phenylbutyl]carbamoyl}-[1,1′-biphenyl]-2-carboxylic acid] |
| < 10 nM | < 10 nM | CCC[C@@H](NC(=O)c1ccc(-c2c(Cl)cccc2-c2nc3cc(Cl)cc(C)c3[nH]2)c(C(=O)O)c1)c1ccccc1 (atropisomer, axis not shown) [Example 95, (S)-2′-chloro-6′-(5-chloro-7-methyl-1H-1,3-benzodiazol-2-yl)-4-{[(1R)-1-phenylbutyl]carbamoyl}-[1,1′-biphenyl]-2-carboxylic acid] |
| < 10 nM | < 10 nM | CCC[C@@H](NC(=O)c1ccc(-c2c(Cl)cccc2-c2ncc(-c3ccccc3)[nH]2)c(C(=O)O)c1)c1ccccc1 (atropisomer, axis not shown) [Example 102, (S)-2′-chloro-6′-(5-phenyl-1H-imidazol-2-yl)-4-{[(1R)-1-phenylbutyl]carbamoyl}-[1,1′-biphenyl]-2-carboxylic acid] |
| < 10 nM | < 10 nM | CCC[C@@H](NC(=O)c1ccc(-c2c(Cl)cccc2-c2ncc(-c3cccc(OC)c3)[nH]2)c(C(=O)O)c1)c1ccccc1 (atropisomer, axis not shown) [Example 103, (S)-2′-chloro-6′-[5-(3-methoxyphenyl)-1H-imidazol-2-yl]-4-{[(1R)-1-phenylbutyl]carbamoyl}-[1,1′-biphenyl]-2-carboxylic acid] |
